The values that follow come from ChEMBL document CHEMBL1201862, “PubChem BioAssay data set” (2004).

Assay in all cases: NCI-60 cell line screen, 48 h
Assay [1] has as its system 786-0.
The subject of assay [2] is A549.
The subject of assay [3] is CAKI-1.
Assay [4] deals with COLO 205.
Assay [5] relates to HCC 2998.
Assay [6] relates to HL-60.
The test system of assay [7] is HT-29.
For assay [8], the system named is K562.
In assay [9] the test system is KM-20L2.
In assay [10] the test system is M14.
For assay [11], the system named is OVCAR-4.
Assay [12] has as its system SF-268.
Assay [13] deals with SK-OV-3.
Assay [14] concerns TK-10.
For assay [15], the system named is UACC-257.
In assay [16] the test system is UACC-62.
Assay [17] relates to OVCAR-8.
The test system of assay [18] is DU-145.
The test system of assay [19] is NCI/ADR-RES.
Assay [20] deals with PC-3.

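Growth conditions: 96-well plates. Treatment: test compound, 48 hours, 5 concentrations. Analysis: linear interpolation between bracketing concentrations; unreached endpoints set to highest concentration. The concentration for 50% growth inhibition is given as GI50.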 The source made the active and inactive calls. Cut-off read from the data, not from the text of the source: active = GI50 up to about 1.1 µM and inactive = higher. A value given as a limit tells only on which side of the number the result lay.

Consider `Oc1nnc(CNc2ccc(Cl)cc2Cl)c2ccccc12`, for which the GI50 was 16.7 µM (inactive) in [1]; 17.7 µM (inactive) in assay [2]; 24.1 µM (inactive) in [3]; 45.8 µM (inactive) in assay [4]; 20 µM (inactive) in [5]; 22.5 µM (inactive) in assay [6]. In addition, the GI50 is 31.8 µM (inactive) in assay [7]; 44.9 µM (inactive) in assay [8]; 25.6 µM (inactive) in assay [9]; 32 µM (inactive) in assay [10]; 16.5 µM (inactive) in assay [11]; 19.9 µM (inactive) in [12]. In addition, the GI50 in assay [13] was 18.9 µM (inactive); in assay [14], 20.7 µM (inactive); in [15], 33.4 µM (inactive); in assay [16] it was 27.5 µM (inactive).
Regarding `COC(=O)C12C3C4C1C1C2C3C41I` (stereo not given), the GI50 in assay [1], in assay [2], in [3], in assay [4], in [5] and in assay [6] was > 100 µM (inactive) in each case. For the same compound, the GI50 in [7], in assay [8], in assay [9], in assay [10], in [11] and in assay [17] was > 100 µM (inactive) each time. The GI50 in [12], in assay [13], in assay [14], in assay [15] and in assay [16] was > 100 µM (inactive) throughout.
Regarding `CCc1cc(Cc2cc(Cl)c(NC(=O)C(=O)C3NC(=O)NC3=O)c(CC)c2)cc(Cl)c1NC(=O)C(=O)C1NC(=O)NC1=O` (stereo not given), the GI50 in assay [1] is 42.7 µM (inactive); in [2], 75 µM (inactive); in assay [3] it was > 100 µM (inactive); in assay [4], 57.8 µM (inactive); in [5], 42.8 µM (inactive); in [6] it was 35.2 µM (inactive). The GI50 in [7] is 26.1 µM (inactive); in assay [8], 37.2 µM (inactive); in assay [9], 33.9 µM (inactive); in assay [10] it was 48.5 µM (inactive); in assay [11], > 100 µM (inactive); in assay [17], 21.4 µM (inactive). Further, the GI50 in [12] was 20.7 µM (inactive); in assay [13], 33.9 µM (inactive); in assay [14] it was > 100 µM (inactive); in assay [15], 30.6 µM (inactive); in [16], 46.7 µM (inactive).
Regarding `O=c1c2ccccc2nc(-c2ccccc2)n1NCC1(O)OCC(O)C(O)C1O` (stereo not given), the GI50 is > 100 µM (inactive) in assay [1]; 81.3 µM (inactive) in assay [2]; 47.3 µM (inactive) in assay [3]; > 100 µM (inactive) in assay [4]; > 100 µM (inactive) in assay [5]; 33 µM (inactive) in [6]. Further, the GI50 in assay [7], in [8], in assay [9], in assay [10], in [11] and in assay [17] was > 100 µM (inactive) in each case. For the same compound, the GI50 in [12], in [13], in assay [14], in assay [15] and in assay [16] was > 100 µM (inactive) throughout.
Take `O=S1(=O)COc2ccccc2-c2ncncc21`: the GI50 in [1], in assay [2], in assay [3], in assay [4], in assay [5] and in assay [6] was > 100 µM (inactive) each time. Also, the GI50 in [7], in [8], in assay [9], in [10], in assay [11] and in assay [17] was > 100 µM (inactive) in each case. Besides, the GI50 in [12], in assay [13], in assay [14], in assay [15] and in assay [16] was > 100 µM (inactive) in each case.
For the compound `CC(=O)NC1=C(NCC(C)C)C(=O)c2ccccc2C1=O`, the GI50 was 14.6 µM (inactive) in assay [1]; 54.3 µM (inactive) in [2]; 16.7 µM (inactive) in [3]; > 100 µM (inactive) in assay [4]; > 100 µM (inactive) in assay [5]; 2.76 µM (inactive) in assay [6]. Further, the GI50 was 41 µM (inactive) in assay [7]; 15.3 µM (inactive) in assay [8]; 21.2 µM (inactive) in [9]; 18.2 µM (inactive) in assay [10]; 69.2 µM (inactive) in assay [11]; 22.1 µM (inactive) in [17]. Further, the GI50 in assay [12] was 20.5 µM (inactive); in assay [13], 78.2 µM (inactive); in assay [14] it was 20.7 µM (inactive); in [15], 18.8 µM (inactive); in assay [16], 18 µM (inactive).
For `COC(=O)C1Cc2c(n(Cc3ccccc3)c3ccccc23)C(CCC(=O)O)N1C(C)C` (stereo not given), the GI50 in assay [1], in assay [2], in [3], in assay [4], in assay [5] and in assay [6] was > 100 µM (inactive) each time. The GI50 in assay [7], in [8], in assay [9], in assay [10], in assay [11] and in assay [17] was > 100 µM (inactive) throughout. For the same compound, the GI50 in assay [12], in assay [13], in assay [14], in [15] and in assay [16] was > 100 µM (inactive) throughout.
For the compound `CCCCCCCCCCC(O)[C@H]1CCC(C2CC[C@H]([C@H](O)CCCCCCCCCCC(O)CC3=CC(C)OC3=O)O2)O1` (stereo not given in full), the GI50 was 3.51 µM (inactive) in assay [1]; 1.44 µM (inactive) in assay [2]; 2.18 µM (inactive) in [3]; 1.48 µM (inactive) in assay [4]; 4.57 µM (inactive) in [18]; 3.59 µM (inactive) in [5]. For the same compound, the GI50 is 1.77 µM (inactive) in assay [6]; 1.55 µM (inactive) in [7]; 1.8 µM (inactive) in assay [8]; 3.33 µM (inactive) in assay [9]; 1.69 µM (inactive) in assay [10]; 0.211 µM (active) in assay [19]. Also, the GI50 in assay [11] was 2.75 µM (inactive); in assay [17] it was 1.48 µM (inactive); in [20], 1.7 µM (inactive); in assay [12], 1.58 µM (inactive); in [13], 3.18 µM (inactive); in assay [14], 1.59 µM (inactive). Besides, the GI50 was 1.27 µM (inactive) in [15] and 1.45 µM (inactive) in [16].
In the case of `Cc1ccc(S(=O)(=O)N2CCCCC2CCO)cc1` (stereo not given), the GI50 in assay [1], in assay [2], in [3], in [4], in [5] and in assay [6] was > 100 µM (inactive) throughout. In addition, the GI50 in [7], in assay [8], in assay [9], in assay [10], in assay [11] and in [17] was > 100 µM (inactive) each time. In addition, the GI50 in [12], in [13], in [14], in assay [15] and in assay [16] was > 100 µM (inactive) in each case.
On to `COc1ccc(/C(Cl)=C(\c2ccc(OCCN(C)C)cc2)c2ccc(OC(=O)C(C)(C)C)cc2)cc1`, for which the GI50 in assay [1] was 10.4 µM (inactive); in assay [2], 15 µM (inactive); in [3], 14.7 µM (inactive); in assay [4] it was 13.9 µM (inactive); in assay [5], 15.7 µM (inactive); in assay [6], 5.97 µM (inactive). Moreover, the GI50 was 3.85 µM (inactive) in assay [7]; 3.01 µM (inactive) in assay [8]; 3.41 µM (inactive) in assay [9]; 3.58 µM (inactive) in [10]; 13.9 µM (inactive) in assay [11]; 15.8 µM (inactive) in assay [17]. Moreover, the GI50 is 13.7 µM (inactive) in assay [12], 11.1 µM (inactive) in assay [13], 18.1 µM (inactive) in [14] and 14.8 µM (inactive) in [16].
For the compound `CC[C@]12C=CCN3CCC4(c5cc([C@@]6(C(=O)OC)CC7CN(CCc8c6[nH]c6ccccc86)C[C@@H]6CCC[C@H]76)c(OC)cc5N(C)C4[C@](O)(C(=O)OC)C1OC(C)=O)C32` (stereo not given in full), the GI50 is 0.316 µM (active) in assay [1]; 0.231 µM (active) in [2]; 0.962 µM (active) in [3]; 0.083 µM (active) in assay [4]; 0.0165 µM (active) in assay [18]; 0.29 µM (active) in assay [5]. For the same compound, the GI50 in [6] is 0.0585 µM (active); in assay [7], 0.103 µM (active); in [8], 0.0513 µM (active); in [9], 0.126 µM (active); in [10], 0.157 µM (active); in [19] it was 1.15 µM (inactive). The GI50 in [11] was 0.792 µM (active); in assay [17], 0.185 µM (active); in assay [20] it was 0.0336 µM (active); in assay [12], 0.127 µM (active); in assay [13], 0.135 µM (active); in [15], 0.167 µM (active). Also, the GI50 in assay [16] is 0.0728 µM (active).
